We go through eleven compounds from US11427553B2, “Dihydrooxadiazinones” (Bayer Aktiengesellschaft, priority 2017, dated 2022).

The test system of one series is HeLa cells. Description: Assay 1 cell proliferation measurement (CTG, 72 h), HeLa. It is filed as cell-based, human. To be noted: Homo sapiens, HeLa; Assay 1, 72 h, Cell Titer Glo; read-out: HeLa IC50 [nM] (Cervical cancer). Summed up:
(§1)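 Cells were plated, grown overnight at 37 °C, then treated 72 h with a 10-step 2.5-fold dilution series from 100 nM maximum final (0.3% DMSO vehicle). Viability was read by CellTiter-Glo luminescence. IC50 from a 4-parameter fit, normalised to a 0 h plate (maximum inhibition) and DMSO control (minimum inhibition).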
(In general: In ATP-based viability assays light output follows the ATP content of the culture.)

A further series concerns SK-MEL-3 cells. Description: Assay 1 cell proliferation measurement (CTG, 72 h), SK-MEL-3. It is filed as cell-based, human. The conditions noted are these: Homo sapiens, SK-MEL3; Assay 1, 72 h, Cell Titer Glo; read-out: SK-MEL-3 IC50 [nM] (melanoma). Put shortly: as §1
A further series concerns IGR37 cells. Description: Assay 1 cell proliferation measurement (CTG, 72 h), IGR37. In kind it is cell-based. To be noted: Homo sapiens, IGR-37, Cell Titer Glo, read-out: IGR37 IC50 [nM] (melanoma).
The subject of the next series is Hs 578T cells. Description: Assay 1 cell proliferation measurement, Hs 578T. In kind it is cell-based. The conditions noted are these: Homo sapiens, Breast, read-out: Anti-proliferation IC50 [nM] Hs 578T.
In a further series the test system is HEL 92.1.7 cells. Description: Assay 1 cell proliferation measurement, HEL 92.1.7. In kind it is cell-based. The conditions noted are these: Homo sapiens, Erythroleukemia, read-out: Anti-proliferation IC50 [nM] HEL 92.1.7.
A further series relates to DK-MG cells. Description: Assay 1 cell proliferation measurement, DK-MG. In kind it is cell-based. To be noted: Homo sapiens; Glioblastoma; read-out: Anti-proliferation IC50 [nM] DK-MG.
For a further series, the system named is DBTRG-05-MG cells. Description: Assay 1 cell proliferation measurement, DBTRG-05-MG. The conditions noted are these: Homo sapiens, Glioblastoma, read-out: Anti-proliferation IC50 [nM] DBTRG-05-MG. In kind it is cell-based.
For the next series, the system named is CHL-1 cells. Description: Assay 1 cell proliferation measurement, CHL-1. To be noted: Homo sapiens, Melanoma, read-out: Anti-proliferation IC50 [nM] CHL-1. In kind it is cell-based.
Another series concerns A-2058 cells. Description: Assay 1 cell proliferation measurement, A-2058. In kind it is cell-based. To be noted: Homo sapiens, A2058; Melanoma; read-out: Anti-proliferation IC50 [nM] A-2058.
Another series concerns PA-1 cells. Description: Assay 1 cell proliferation measurement, PA-1. In kind it is cell-based. The conditions noted are these: Homo sapiens, Ovarian teratocarcinoma, read-out: Anti-proliferation IC50 [nM] PA-1.
In the next series the target is human full length PDE3A (Homo sapiens (Human), UniProt Q14432). Description: Assay 4 PDE3A enzyme inhibition (3H-cAMP SPA). In kind it is biochemical. To be noted: Sf9 cell extract. Summed up:
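In this SPA format, the 60-min room-temperature reaction used 0.025 μCi [8-3H]cAMP and diluted full-length PDE3A from Sf9 cells. Percentage activity was plotted against log compound concentration to derive IC50.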

Another series deals with human full length PDE3B (Homo sapiens (Human), UniProt Q13370). Description: Assay 5 PDE3B enzyme inhibition (3H-cAMP SPA). In kind it is biochemical. To be noted: Sf9 cell extract. Put shortly: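 Inhibition was measured by scintillation proximity using [8-3H]adenosine 3′,5′-cyclic phosphate as substrate and full-length human PDE3B from an Sf9 overexpression extract, run one hour at room temperature at pH 7.5.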

Series [1] in a line: Assay 6 in vitro metabolic stability in cryopreserved human hepatocytes (CL, Fmax). The conditions noted are these: 1 μM test compound; for Clblood: hepatic in vivo blood clearance calculated (well-stirred) from half-life in cryopreserved human hepatocytes; for Fmax: maximal oral bioavailability calculated from half-life in cryopreserved human hepatocytes. It is filed as in vitro ADME. As to the method: Assay 6 Method for Human Cryo Hepatocytes:
Investigation of In Vitro Metabolic Stability in Cryopreserved Human Hepatocytes (Including Calculation of Hepatic In Vivo Blood Clearance (CL) and Maximal Oral Bioavailability (Fmax))
Cryopreserved Hepatocytes (e.g. purchased from Celsis InVitroTechnologies) were briefly thawed, washed with 45 mL pre-warmed in in vitro GRO HT medium and centrifuged for 5 min at 50×g. The cell pellet was resuspended in 5 ml of Krebs-Henseleit […] (KHB). Cell viability was determined by trypan blue exclusion.
For the metabolic stability assay liver cells were distributed in WME containing 5% FCS to glass vials at a density of 1.0×10^6 vital cells/ml. The test compound was added to a final concentration of 1 μM. During incubation, the hepatocyte suspensions were continuously shaken at 580 rpm and aliquots were taken at 2, 8, 16, 30, 45 and 90 min, to which equal volumes of cold methanol were immediately added. Samples were frozen at −20° C. over night, after subsequently centrifuged for 15 minutes at 3000 rpm and the supernatant was analyzed with an Agilent 1290 HPLC-system with LCMS/MS detection.
The half-life of a test compound was determined from the concentration-time plot. From the half-life the intrinsic clearances were calculated. Together with the additional parameters liver blood flow, amount of liver cells in vivo and in vitro. The hepatic in vivo blood clearance (CL) and the maximal oral bioavailability (Fmax) was calculated.

Another series relates to H4 cells. Description: Assay 1 cell proliferation measurement, H4. To be noted: Homo sapiens; Astrocytoma; read-out: Anti-proliferation IC50 [nM] H4. It is filed as cell-based.
For another series, the system named is NCI-H1734 cells. Description: Assay 1 cell proliferation measurement, NCI-H1734. In kind it is cell-based. The conditions noted are these: Homo sapiens, Lung, read-out: Anti-proliferation IC50 [nM] NCI-H1734.

Molecules are shown by their SMILES. pIC50: −log10 of the molar value.

Sequence of human full length PDE3A (Q14432 whole entry): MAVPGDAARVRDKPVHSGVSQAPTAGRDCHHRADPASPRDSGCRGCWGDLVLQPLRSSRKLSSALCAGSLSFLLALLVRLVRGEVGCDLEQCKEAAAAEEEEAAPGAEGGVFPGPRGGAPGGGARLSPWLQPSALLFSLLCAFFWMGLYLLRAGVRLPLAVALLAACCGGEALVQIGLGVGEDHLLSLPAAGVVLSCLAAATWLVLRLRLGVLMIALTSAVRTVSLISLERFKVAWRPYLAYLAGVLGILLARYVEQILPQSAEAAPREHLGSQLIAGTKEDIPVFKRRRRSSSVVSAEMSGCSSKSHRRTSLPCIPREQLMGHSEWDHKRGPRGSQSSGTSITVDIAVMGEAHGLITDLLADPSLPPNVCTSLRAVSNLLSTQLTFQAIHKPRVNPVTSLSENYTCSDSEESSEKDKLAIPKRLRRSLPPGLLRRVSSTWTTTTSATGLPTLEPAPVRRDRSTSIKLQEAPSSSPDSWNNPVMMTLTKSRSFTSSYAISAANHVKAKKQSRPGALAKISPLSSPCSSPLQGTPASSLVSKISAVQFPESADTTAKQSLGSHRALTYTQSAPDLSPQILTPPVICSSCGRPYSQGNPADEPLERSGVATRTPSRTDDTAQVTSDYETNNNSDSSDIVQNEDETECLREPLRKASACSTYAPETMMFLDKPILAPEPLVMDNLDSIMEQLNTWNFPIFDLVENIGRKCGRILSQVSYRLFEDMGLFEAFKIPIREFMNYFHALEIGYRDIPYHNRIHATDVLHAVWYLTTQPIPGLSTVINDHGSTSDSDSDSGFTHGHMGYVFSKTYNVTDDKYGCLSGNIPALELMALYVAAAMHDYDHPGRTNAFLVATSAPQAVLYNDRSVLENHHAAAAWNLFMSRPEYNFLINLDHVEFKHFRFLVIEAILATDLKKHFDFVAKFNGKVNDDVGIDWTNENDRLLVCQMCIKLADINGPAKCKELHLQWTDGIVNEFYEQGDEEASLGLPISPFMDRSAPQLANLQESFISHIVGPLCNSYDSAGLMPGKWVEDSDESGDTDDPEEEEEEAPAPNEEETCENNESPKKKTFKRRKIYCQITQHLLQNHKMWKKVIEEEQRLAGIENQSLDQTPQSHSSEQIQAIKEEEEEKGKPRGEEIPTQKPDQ
Sequence of human full length PDE3B (Q13370 whole entry): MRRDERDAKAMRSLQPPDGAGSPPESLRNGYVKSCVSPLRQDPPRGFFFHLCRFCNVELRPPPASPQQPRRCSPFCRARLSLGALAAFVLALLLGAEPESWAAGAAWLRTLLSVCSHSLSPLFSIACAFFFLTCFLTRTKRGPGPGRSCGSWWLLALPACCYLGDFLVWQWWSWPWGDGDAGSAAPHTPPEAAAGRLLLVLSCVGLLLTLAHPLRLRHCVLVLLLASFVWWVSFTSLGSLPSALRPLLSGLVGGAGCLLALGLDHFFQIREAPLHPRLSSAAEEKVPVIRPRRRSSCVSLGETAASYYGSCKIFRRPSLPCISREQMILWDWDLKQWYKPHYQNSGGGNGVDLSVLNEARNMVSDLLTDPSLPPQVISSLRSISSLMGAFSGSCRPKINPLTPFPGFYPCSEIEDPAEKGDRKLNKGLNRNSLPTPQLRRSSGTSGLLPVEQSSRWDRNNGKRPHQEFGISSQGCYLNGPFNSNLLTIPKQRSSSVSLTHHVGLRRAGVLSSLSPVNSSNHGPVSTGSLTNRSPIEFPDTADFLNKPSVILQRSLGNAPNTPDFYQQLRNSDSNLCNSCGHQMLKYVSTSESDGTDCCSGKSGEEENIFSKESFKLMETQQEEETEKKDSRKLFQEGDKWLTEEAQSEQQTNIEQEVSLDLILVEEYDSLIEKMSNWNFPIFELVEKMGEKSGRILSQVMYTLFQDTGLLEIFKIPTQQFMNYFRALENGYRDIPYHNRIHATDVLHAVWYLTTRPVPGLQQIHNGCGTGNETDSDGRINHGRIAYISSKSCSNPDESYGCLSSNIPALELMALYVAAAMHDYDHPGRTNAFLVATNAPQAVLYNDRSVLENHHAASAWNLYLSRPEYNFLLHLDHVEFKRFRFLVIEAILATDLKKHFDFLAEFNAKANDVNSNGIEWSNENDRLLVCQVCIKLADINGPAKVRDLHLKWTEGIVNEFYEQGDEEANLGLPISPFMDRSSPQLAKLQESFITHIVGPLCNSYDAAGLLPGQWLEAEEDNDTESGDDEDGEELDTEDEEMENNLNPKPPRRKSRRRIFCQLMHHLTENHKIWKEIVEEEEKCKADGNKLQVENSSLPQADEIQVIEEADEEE

Turning to `COCCCc1ccc(C2=NNC(=O)OC2)cc1C(F)(F)F` [Example 267, 5-[4-(3-Methoxypropyl)-3-(trifluoromethyl)phenyl]-3,6-dihydro-2H-1,3,4-oxadiazin-2-one], the IC50 in the series with HeLa cells was 2 nM; in the series on SK-MEL-3 cells it was 5 nM; with IGR37 cells, 7 nM; in the series with Hs 578T cells, 34 nM; in the series with HEL 92.1.7 cells, 26 nM; with DK-MG cells, 18 nM. In addition, the IC50 came to 35 nM in the series on DBTRG-05-MG cells, 16 nM in the series on CHL-1 cells, 40 nM in the series with A-2058 cells and 44 nM in the series on PA-1 cells. The pIC50 (in general, the IC50 on a negative log10 scale, so that one unit is a factor of ten) at human full length PDE3A is 6.84; on human full length PDE3B it was 6.73. In addition, in [1], the Clblood was 4.5 mL/min/kg. Further, the Fmax in series [1] is on record as 80%.

For the compound `Cc1cc(C2=NNC(=O)OC2)ccc1-c1ccc(F)cc1` [Example 7, 5-(4′-Fluoro-2-methylbiphenyl-4-yl)-3,6-dihydro-2H-1,3,4-oxadiazin-2-one], the IC50 in the series on HeLa cells was 5 nM; in the series with SK-MEL-3 cells, 13 nM; in the series with H4 cells it was 44 nM; in the series on NCI-H1734 cells, 26 nM. Moreover, the pIC50 at human full length PDE3A is 6.66; against human full length PDE3B, 6.77. For the same compound, the Clblood in series [1] was 5.5 mL/min/kg. For the same compound, the Fmax in series [1] is recorded as 75%.

With `Cc1ccc(C2=NNC(=O)OC2)cc1C(F)(F)F` [Example 139, 5-[4-Methyl-3-(trifluoromethyl)phenyl]-3,6-dihydro-2H-1,3,4-oxadiazin-2-one], the IC50 in the series with HeLa cells is 14 nM; in the series on SK-MEL-3 cells it was 29 nM; with IGR37 cells, 40 nM; in the series on Hs 578T cells, > 100 nM; in the series on HEL 92.1.7 cells it was > 100 nM; with DK-MG cells, 61 nM. The IC50 in the series on DBTRG-05-MG cells was > 100 nM; in the series on CHL-1 cells, 58 nM; in the series with A-2058 cells, > 100 nM; in the series with PA-1 cells, > 100 nM. For the same compound, the pIC50 is 6.85 on human full length PDE3A and 6.51 against human full length PDE3B.

As to `O=C1NN=C(c2ccc(N3CCOCC3)c(F)c2)CO1` [Example 4, 5-[3-Fluoro-4-(morpholin-4-yl)phenyl]-3,6-dihydro-2H-1,3,4-oxadiazin-2-one], the IC50 with HeLa cells amounted to 7 nM; in the series with SK-MEL-3 cells, 16 nM; in the series on H4 cells it was 47 nM; with NCI-H1734 cells, 40 nM. In addition, the pIC50 is 6.69 at human full length PDE3A and 6.81 on human full length PDE3B. For the same compound, the Clblood in series [1] is <0.17 mL/min/kg. For the same compound, the Fmax in [1] is recorded as 100%.

`C[C@@H]1OC(=O)NN=C1c1cc(Cl)c(N2CCOCC2)c(C(F)(F)F)c1` [Example 121, (6S)-5-(-[(3-Chloro-4-(morpholin-4-yl)-5-(trifluoromethyl)phenyl)-)]-6-methyl-3,6-dihydro-2H-1,3,4-oxadiazin-2-one]: the IC50 with HeLa cells worked out at 5 nM; with SK-MEL-3 cells, 10 nM; in the series on IGR37 cells it was 12 nM. In addition, the results for the pIC50 against human full length PDE3A and against human full length PDE3B were 6.82 and 6.52, respectively. Moreover, the Clblood in series [1] is 2.17 mL/min/kg. For the same compound, the Fmax in [1] is 90%.

As for `C[C@@H]1OC(=O)NN=C1c1ccc(N2CCN(C)CC2)c(C(F)(F)F)c1` [Example 277, (6S)-6-Methyl-5-[4-(4-methylpiperazin-1-yl)-3-(trifluoromethyl)phenyl]-3,6-dihydro-2H-1,3,4-oxadiazin-2-one], the IC50 with HeLa cells is 0.3 nM; in the series with SK-MEL-3 cells it was 1 nM; in the series on IGR37 cells it was 1 nM; with Hs 578T cells, > 100 nM; with HEL 92.1.7 cells it was > 100 nM; with DK-MG cells, > 100 nM. The IC50 with DBTRG-05-MG cells, in the series on CHL-1 cells, in the series with A-2058 cells and with PA-1 cells was > 100 nM in each case. In addition, the results for the pIC50 against human full length PDE3A and on human full length PDE3B were 7.00 and 7.06, respectively.

`O=C1NN=C(c2ccc(-c3ccccc3C(F)F)c(F)c2)CO1` [Example 161, 5-[2′-(Difluoromethyl)-2-fluoro[1,1′-biphenyl]-4-yl]-3,6-dihydro-2H-1,3,4-oxadiazin-2-one]: the figures for the IC50 with HeLa cells, with SK-MEL-3 cells and in the series on IGR37 cells were 6 nM, 10 nM and 12 nM, respectively. The results for the pIC50 against human full length PDE3A and against human full length PDE3B were 7.18 and 7.31, respectively. The Clblood in [1] is 9.17 mL/min/kg. Besides, in series [1], the Fmax was 59%.

Turning to `C[C@@H]1OC(=O)NN=C1c1ccc(-c2ccnc(N)c2)c(C(F)(F)F)c1` [Example 165, (6S)-5-[4-(2-Aminopyridin-4-yl)-3-(trifluoromethyl)phenyl]-6-methyl-3,6-dihydro-2H-1,3,4-oxadiazin-2-one], the IC50 with HeLa cells, in the series on SK-MEL-3 cells and in the series with IGR37 cells was 1 nM each time. The negative logarithm of the IC50 (pIC50) at human full length PDE3A was 7.11; on human full length PDE3B it was 7.18. The Clblood in series [1] is 14.7 mL/min/kg. Further, the Fmax in series [1] is recorded as 33%.

As to `Cc1cc(C2=NNC(=O)OC2)ccc1-c1ccc(F)c(F)c1` [Example 8, 5-(3′,4′-Difluoro-2-methylbiphenyl-4-yl)-3,6-dihydro-2H-1,3,4-oxadiazin-2-one], the IC50 with HeLa cells is 6 nM; in the series on SK-MEL-3 cells, 18 nM; with IGR37 cells, 16 nM; with H4 cells, 50 nM; in the series on NCI-H1734 cells, 42 nM. For the same compound, the negative logarithm of the IC50 (pIC50) against human full length PDE3A is 6.68; at human full length PDE3B, 6.61.

Turning to `O=C1NN=C(c2ccc(-c3ccc(C(F)F)cc3)c(F)c2)CO1` [Example 92, 5-[4′-(Difluoromethyl)-2-fluoro[1,1′-biphenyl]-4-yl]-3,6-dihydro-2H-1,3,4-oxadiazin-2-one], the IC50 with HeLa cells came out at 2 nM; in the series on SK-MEL-3 cells it was 4 nM; with IGR37 cells, 4 nM; in the series on Hs 578T cells, 31 nM; in the series with HEL 92.1.7 cells, 9 nM; with DK-MG cells it was 17 nM. In addition, the IC50 is 18 nM with DBTRG-05-MG cells, 11 nM in the series with CHL-1 cells, 18 nM in the series on A-2058 cells and 17 nM with PA-1 cells. For the same compound, the negative logarithm of the IC50 (pIC50) was 7.17 against human full length PDE3A and 6.89 on human full length PDE3B.

`CC(C)(C)CCc1ccc(C2=NNC(=O)OC2)cc1C(F)(F)F` [Example 269, 5-[4-(3,3-Dimethylbutyl)-3-(trifluoromethyl)phenyl]-3,6-dihydro-2H-1,3,4-oxadiazin-2-one]: the IC50 with HeLa cells was 6 nM; in the series on SK-MEL-3 cells, 17 nM; in the series with IGR37 cells, 24 nM; in the series with Hs 578T cells, 66 nM; with HEL 92.1.7 cells it was 44 nM; in the series on DK-MG cells, 49 nM. The IC50 in the series on DBTRG-05-MG cells was found to be 50 nM; in the series with CHL-1 cells, 47 nM; in the series with A-2058 cells, 61 nM; in the series with PA-1 cells it was 49 nM. Further, the pIC50 against human full length PDE3A is 6.16; against human full length PDE3B, 6.10. The Clblood in series [1] was 6.83 mL/min/kg. Also, the Fmax in series [1] was 69%.
